According to patent publication US5821244A, “Condensed nitrogen heterocycles and their use as pesticides, fungicides and antimycotics” (Hoechst Schering AgrEvo GmbH, priority 1993, dated 1998):

How the values were obtained:
Botrytis cinerea = assay: Fungicide test, Botrytis cinerea on broad beans; assay type: in vivo; settings: 500 mg of active substance/l spray mixture; approximately 1 week after inoculation
Method: Broad beans cv. "Herz Freya" or "[…]" approximately 14 days old, were treated to runoff point with aqueous suspensions of the compounds according to the invention. After the spray coating had dried off, the plants were inoculated with a spore suspension (1.5 million spores/ml) of Botrytis cinerea. The plants were grown on in a controlled-environment cabinet at 20°-22° C. under relative atmospheric humidity of approximately 99%. […] The experiments were evaluated approximately 1 week after inoculation. The disease level of the plants was scored in percent relative to untreated, 100% infected control plants.

Plasmopara viticola = assay: Fungicide test, Plasmopara viticola on grapevine seedlings; assay type: in vivo; settings: 500 mg of active substance/l spray mixture; incubation 7 days
Method: Approximately 6 weeks after sowing, grapevine seedlings "Riesling/Ehrenfelder" were treated to runoff point using aqueous suspensions of the compounds according to the invention. After the spray coating had dried on, the plants were inoculated with a zoosporangia suspension of Plasmopara viticola and the dripping wet plants were placed for 4 to 5 hours into a controlled-environment cabinet at 23° C. at a relative atmospheric humidity of 80-90%.
After an incubation time of 7 days in the greenhouse, the plants were returned overnight into the controlled-environment cabinet to stimulate sporulation of the fungus. The disease was then evaluated. The disease level was expressed in % of diseased leaf area in comparison with the untreated, 100% infected control plants.

[1] = tested on: eggs of the large milkweed bug (Oncopeltus fasciatus); assay: Ovicidal activity, eggs of large milkweed bug on paper filter disks; assay type: in vivo; settings: 168 h, after 7 days
Method: Paper filter disks onto which eggs of the large milkweed bug (Oncopeltus fasciatus) have been placed are treated with in each case 0.5 ml of aqueous dilution of the test formulation. After the coating has dried on, the Petri dish is sealed, and the inside is kept at maximum atmospheric humidity. After the dishes have been kept at room temperature, the ovicidal activity was determined after 7 days.

[2] = tested on: tobacco hornworm (Manduca sexta); assay: Oral application to larvae (L4) of tobacco hornworm; assay type: in vivo
Method: Active substances which were dissolved in acetone were applied orally to butterfly larvae (L4) of tobacco hornworm (Manduca sexta). After active substance of Example No. 3 or 8 (2×10^-4 g of a.i./animal) had been applied, a mortality of 100% was found after 48 hours.

[3] = tested on: eggs of Diabrotica undecimpunctata; assay: Activity against freshly deposited eggs of southern corn rootworm; assay type: in vivo; settings: 120 h, after 5 days
Method: Freshly deposited eggs of Diabrotica undecimpunctata (southern corn rootworm) were sprayed, on paper filters, with in each case 2 ml of an aqueous suspension of wettable powders (active substance content 250 ppm) and were subsequently observed at room temperature. After 5 days, the eggs were examined for mortality.

[4] = tested on: whitefly (Trialeurodes vaporariorum); assay: Insecticide test, whitefly on bean plants; assay type: in vivo; settings: 336 h, after 14 days
Excerpt: Bean plants which were heavily populated with whitefly (Trialeurodes vaporariorum) were sprayed to the beginning of the run-off point using aqueous suspensions of concentrates of wettable powders (250 ppm active substance content). After the plants had been placed in the greenhouse, they were subjected to microscope checks after 14 days, resulting in a 100% mortality in the case of each preparation containing the active substances of Example Nos. 4, 5, 10, 19, 20, 24, 27, 28, 130 and 139.

[5] = tested on: two-spotted spider mite (Tetranychus urticae); assay: Acaricide test, two-spotted spider mite on bean plants; assay type: in vivo; settings: 168 h, after 7 days, read-out: mortality rate of the mites
Excerpt: Bean plants (Phaseolus v.) which were heavily infested with the two-spotted spider mite (Tetranychus urticae, full population) were sprayed with the aqueous dilution of a concentrate of wettable powder, containing 250 ppm of the active substance in question. The mortality of the mites was checked after 7 days.

[6] = tested on: tropical cattle ticks (Boophilus microplus); assay: In vitro test on tropical cattle ticks, inhibition of oviposition; assay type: in vivo; settings: Rhipicephalus microplus, 336 h, immersion five minutes, two weeks after treatment
Method: In vitro test on tropical cattle ticks (Boophilus microplus) The following experimental set-up allowed the effectiveness of the compounds according to the invention against ticks to be confirmed.
To produce a suitable preparation of active substance, the active substances were dissolved to 10% strength (w/v) in a mixture composed of dimethylformamide (85 g), nonylphenolpolyglycol ether (3 g) and ethoxylated castor oil (7 g), and the resulting emulsion concentrates were diluted with water to a test concentration of 500 ppm.
Batches of ten females of the tropical tick Boophilus microplus which had sucked themselves full were immersed for five minutes in these active substance dilutions. The ticks were subsequently dried on paper filters and then attached, with their backs, to an adhesive film-in order to deposit eggs. The ticks were kept in an incubator at 28° C. at an atmospheric humidity of 90%.
As a control, the female ticks were immersed just in water. Two weeks after the treatment, the inhibition of oviposition was used to determine the effectiveness. 100% means that no ticks have deposited eggs, 0 that all ticks have deposited eggs.

Spodoptera littoralis = assay: Insecticide test, Egyptian cotton leafworm larvae (L3); assay type: in vivo; settings: 120 h, after 5 days
Method: Spodoptera littoralis (Egyptian cotton leafworm) larvae in the L3 stage were introduced into Petri dishes filled with nutrient medium, and these dishes together with the larvae were sprayed with 2 ml of an aqueous suspension of wettable powder containing 250 ppm (Corresponding to 6000 l of water/ha). After the spray coating had dried on, the Petri dishes were sealed and stored for 5 days at 21° C. After 5 days, the compound of Example No. 28 had caused a mortality of the Spodoptera larvae of 100%.

Phytophthora infestans = assay type: in vivo; settings: 500 mg of active substance/l spray mixture; approximately 1 week after inoculation
Leptosphaeria nodorum = assay: Fungicide test, Leptosphaeria nodorum on wheat plants; assay type: in vivo; settings: 500 mg of active substance/l spray mixture
Method: Wheat plants cv. "Jubilar" in the 2-leaf stage were wetted to runoff point using aqueous suspensions of the preparations according to the invention. […] The plants were grown on in the greenhouse at a relative atmospheric humidity of approximately 90% until the symptoms became visible. The disease level was determined in % of diseased leaf area in comparison with the untreated, 100% infected control plants.

Erysiphe graminis = assay: Fungicide test, Erysiphe graminis (powdery mildew) on barley plants; assay type: in vivo, Erysiphe graminis f. sp. hordei; settings: 500 mg of active substance/l spray mixture; applied 24 hours after inoculation; 10 days
Method: Barley plants in the 3-leaf stage were inoculated with large amounts of conidia of powdery mildew of barley (Erysiphe graminis f. sp. hordei) and placed in a greenhouse at 20° C. and a relative atmospheric humidity of 90 to 95%. 24 hours after the inoculation, the plants were wetted uniformly with the abovementioned compounds. After an incubation time of 10 days, the plants were examined for the occurrence of powdery mildew of barley. The disease level was determined in % of diseased leaf area based on untreated, 100% infected control plants.

Pyrenophora teres = assay: Fungicide test, Pyrenophora teres on barley plants; assay type: in vivo; settings: 500 mg of active substance/l spray mixture; approximately 1 week after inoculation
Method: Barley plants cv. "Igri" in the 2-leaf stage were wetted to runoff point with an aqueous suspension of the compounds according to the invention. […] The infected plants were subsequently grown on in the greenhouse at 25° C. at a relative atmospheric humidity of 80%. The disease level was evaluated approximately 1 week after inoculation. The disease level was determined in % of diseased leaf area in comparison with untreated, 100% infected control plants.

Row | SMILES | disease suppression (Botrytis cinerea) | mortality at 250 ppm [1] | mortality at 250 ppm [4] | mortality at 250 ppm [5] | further results
1 | CC(C)(C)C1CCC(Nc2ccnc3ccccc23)CC1 (stereo not drawn) [Compound 3] | suppress disease completely | 100% |  |  | disease suppression (Plasmopara viticola): suppress disease completely; mortality at 0.2 mg ([2]; po, 48 h): 100%; mortality at 250 ppm [3]: 100%
2 | CC(C)(C)C1CCC(Oc2ccnc3ccccc23)CC1 (stereo not drawn) [Compound 4] |  |  | 100% | 100% | mortality at 250 ppm [3]: 100%
3 | CC(C)(C)[C@H]1CC[C@@H](Nc2ccnc3c(F)cccc23)CC1 [Compound 5] |  |  | 100% |  | 
4 | CC(C)(C)[C@H]1CC[C@@H](Nc2ccnc3cc(Cl)ccc23)CC1 [Compound 7] | suppress disease completely |  |  |  | disease suppression (Plasmopara viticola): suppress disease completely
5 | CC(C)(C)[C@H]1CC[C@@H](Nc2ccnc3cc(C(F)(F)F)ccc23)CC1 [Compound 8] |  |  |  |  | mortality at 0.2 mg ([2]; oral, 2×10^-4 g of a.i./animal, after 48 hours): 100%
6 | CCCC[C@H]1CC[C@@H](Oc2ccnc3ccccc23)CC1 [Compound 10] |  | 100% | 100% | 100% | 
7 | CCC(C)(C)[C@H]1CC[C@@H](Oc2ccnc3ccccc23)CC1 [Compound 14] |  |  |  |  | inhibition at 500 ppm [6]: 100%
8 | CC(C)(C)CC(C)(C)C1CCC(Nc2ccnc3ccccc23)CC1 (stereo not drawn) [Compound 19] | suppress disease completely | 100% | 100% | 100% | disease suppression (Plasmopara viticola): suppress disease completely
9 | CC(C)(C)CC(C)(C)[C@H]1CC[C@@H](Oc2ccnc3ccccc23)CC1 [Compound 20] |  |  | 100% | 100% | inhibition at 500 ppm [6]: 100%
10 | c1ccc2c(NC3CCC(C4CCCCC4)CC3)ccnc2c1 (stereo not drawn) [Compound 23] | suppress disease completely | 100% |  | 100% | 
11 | c1ccc2c(O[C@H]3CC[C@@H](C4CCCCC4)CC3)ccnc2c1 [Compound 24, 4-(4-Cyclohexylcyclohexyloxy)quinoline] |  |  | 100% | 100% | 
12 | c1ccc([C@H]2CC[C@@H](Nc3ccnc4ccccc34)CC2)cc1 [Compound 25, 4-(4-Phenylcyclohexylamino)quinoline] | suppress disease completely |  |  |  | disease suppression (Plasmopara viticola): suppress disease completely
13 | c1ccc([C@H]2CC[C@H](Nc3ccnc4ccccc34)CC2)cc1 [Compound 26, 4-(4-Phenylcyclohexylamino)quinoline] | suppress disease completely |  |  |  | disease suppression (Plasmopara viticola): suppress disease completely
14 | c1ccc([C@H]2CC[C@@H](Oc3ccnc4ccccc34)CC2)cc1 [Compound 27] |  | 100% | 100% | 100% | mortality at 250 ppm [3]: 100%; inhibition at 500 ppm [6]: 100%
15 | Fc1cccc2c(N[C@H]3CC[C@@H](c4ccccc4)CC3)ccnc12 [Compound 28] |  |  | 100% |  | mortality at 250 ppm (Spodoptera littoralis): 100%; inhibition at 500 ppm [6]: 100%
16 | CCOc1ccc([C@H]2CC[C@@H](Nc3ccnc4ccccc34)CC2)cc1 [Compound 45] | suppress disease completely | 100% |  |  | disease suppression (Phytophthora infestans): suppress disease completely
17 | Cc1cc(N[C@H]2CC[C@@H](C(C)(C)CC(C)(C)C)CC2)c2ccccc2n1 [Compound 80] | suppress disease completely |  |  |  | 
18 | CCC(C)(C)[C@H]1CC[C@@H](Nc2ccnc3cccnc23)CC1 [Compound 130] |  | 100% | 100% | 100% | disease suppression (Plasmopara viticola): suppress disease completely; disease suppression (Leptosphaeria nodorum): suppress disease completely; mortality at 250 ppm [3]: 100%
19 | CC(C)(C)CC(C)(C)[C@H]1CC[C@@H](Oc2ccnc3cccnc23)CC1 [Compound 133] |  |  |  | 100% | 
20 | c1ccc([C@H]2CC[C@@H](Oc3ccnc4cccnc34)CC2)cc1 [Compound 139] |  | 100% | 100% | 100% | disease suppression (Erysiphe graminis): suppress disease completely; disease suppression (Pyrenophora teres): suppress disease completely; mortality at 250 ppm [3]: 100%
21 | c1ccc([C@H]2CC[C@@H](Nc3ccnc4ncccc34)CC2)cc1 [Compound 208] |  | 100% |  |  | 
22 | Cc1ccc2c(NC3CCC(C(C)(C)CC(C)(C)C)CC3)ccnc2n1 (stereo not drawn) [Compound 215] |  | 100% |  |  | 
23 | CCC(C)(C)[C@H]1CC[C@@H](Nc2ncnc3cccnc23)CC1 [Compound 232] |  |  |  |  | disease suppression (Plasmopara viticola): suppress disease completely; mortality at 250 ppm [3]: 100%
24 | c1ccc([C@H]2CC[C@@H](Nc3ncnc4ncccc34)CC2)cc1 [Compound 280] |  | 100% |  |  | 
